This passage reports IC50 results from article PMC4500090 (Biochemical and biophysical research communications, 2015).

The term IC50 denotes the concentration that gives 50% inhibition.

For experiment [1], the target named is T1, MEKK2 (Homo sapiens, UniProt Q9Y2U5).
T1 sequence (Q9Y2U5 1-619): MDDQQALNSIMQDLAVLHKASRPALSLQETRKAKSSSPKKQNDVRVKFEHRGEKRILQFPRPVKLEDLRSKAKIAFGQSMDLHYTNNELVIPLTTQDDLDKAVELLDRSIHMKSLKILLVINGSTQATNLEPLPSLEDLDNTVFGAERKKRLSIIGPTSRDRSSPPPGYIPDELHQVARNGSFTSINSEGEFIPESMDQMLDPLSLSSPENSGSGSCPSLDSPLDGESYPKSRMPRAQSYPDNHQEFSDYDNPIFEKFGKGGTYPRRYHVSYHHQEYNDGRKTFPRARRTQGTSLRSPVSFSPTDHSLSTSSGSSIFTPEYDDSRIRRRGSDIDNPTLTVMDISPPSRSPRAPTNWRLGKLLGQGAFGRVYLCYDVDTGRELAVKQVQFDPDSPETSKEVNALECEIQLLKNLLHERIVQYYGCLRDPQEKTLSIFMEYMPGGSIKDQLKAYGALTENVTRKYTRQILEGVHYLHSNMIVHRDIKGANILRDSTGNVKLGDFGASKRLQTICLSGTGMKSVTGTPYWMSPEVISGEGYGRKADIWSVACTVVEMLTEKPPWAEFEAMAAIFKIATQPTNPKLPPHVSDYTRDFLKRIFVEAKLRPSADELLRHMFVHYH
As to the kind of experiment: MEKK2 intrinsic ATPase activity assay. The format is biochemical.

Experiment [2] addresses T1, MEKK2. In words: MEKK2 transphosphorylation slot blot assay using MKK6 as a substrate. Type of experiment: biochemical.
For another experiment, the system named is Aurora A. The note with it: read-out: IC50 Aurora A; cited from earlier work.
Experiment [3] deals with Aurora B. The note with it: read-out: IC50 Aurora B; cited from earlier work.
The subject of another experiment is JAK3. The note with it: read-out: IC50 JAK3; cited from earlier work.
For the next experiment, the system named is Abl (T315I) mutant. Conditions: read-out: IC50 Abl (T315I) mutant; cited from earlier work.
In a further experiment the test system is 10 other kinases. The note with it: read-out: IC50 10 other kinases; cited from earlier work.
For experiment [4], the system named is Aurora B. The note with it: read-out: IC50 Aurora B; cited from earlier work. The source holds these as a separate data set.
In a further experiment the test system is CDK1. Conditions: read-out: IC50 CDK1; cited from earlier work.
The next experiment relates to CDK2. The note with it: read-out: IC50 CDK2; cited from earlier work.
The next experiment relates to CDK3. Conditions: read-out: IC50 CDK3; cited from earlier work.

Molecules are shown by their SMILES. Where two headings read alike, the source gives them in different places.

Regarding `O=C(Nc1c[nH]nc1-c1nc2ccc(CN3CCOCC3)cc2[nH]1)NC1CC1` [AT9283], the 50% inhibitory concentration (IC50) is […] against MEKK2 [1]; 4.7 ± 0.9 nM on MEKK2 [2]; […] with Aurora A; […] with Aurora B [3]; […] in the experiment with JAK3; 4 nM in the experiment with Abl (T315I) mutant. Moreover, the IC50 with 10 other kinases was […].
Consider `NC(=O)Nc1cc(-c2cccc(F)c2)sc1C(=O)N[C@H]1CCCNC1` [AZD7762], for which the values for the IC50 against MEKK2 [1] and against MEKK2 [2] were 20 ± 7 nM and 14 ± 2 nM, respectively.
As for `CCS(=O)(=O)Nc1ccc2c(c1)/C(=C(/Nc1ccc(CN3CCCCC3)cc1)c1ccccc1)C(=O)N2` [Hesperadin], the IC50 was 60 ± 25 nM on MEKK2 [1], 34 ± 11 nM against MEKK2 [2] and 250 nM in the experiment with Aurora B [4].
Consider `Nc1nc(Nc2ccc(S(N)(=O)=O)cc2)nn1C(=O)c1c(F)cccc1F` [JNJ-7706621], for which the IC50 against MEKK2 [1] is 24 ± 8 nM; at MEKK2 [2], 17 ± 2 nM; in the experiment with CDK1, […]; with CDK2, […]; in the experiment with CDK3 it was […].
